Test results from paper PMC6154586 (Molecules : A Journal of Synthetic Chemistry and Natural …, 2017).

Columns and labels:
Assay type in all cases: cell-based
Details in all cases: human
[1] = in vitro cytotoxicity bioassay, PC-3
Protocol: (§1) These two experiments were conducted according to reference procedures.

[2] = in vitro cytotoxicity bioassay, MCF-7
Protocol: as §1

[3] = in vitro cytotoxicity bioassay, HepG2
Protocol: as §1

[4] = in vitro cytotoxicity bioassay, MDA-MB-435
Protocol: as §1

[5] = PC-3 cells (prostatic cancer cell line)
[6] = MCF-7 cells (breast cancer cell line)
[7] = HepG2 cells (hepatoma cell line)
[8] = MDA-MB-435 cells (breast cancer cell line)

Measured: IC50

C=C1C2(CC(O)C(=O)OC2(C)C)CC(OC(C)=O)C2(C)C13OC14C(=O)OC(C)(C(=C)C12C(=O)OC4C)C3OC(C)=O (stereo not shown) [Compound 1, 2-hydroacetoxydehydroaustin]
> 50 µM: [1]; [5] | [2]; [6] | [3]; [7] | [4]; [8]

C=C1[C@]2(C)C(=O)[C@]3(O)[C@@H](C)OC(=O)[C@]13[C@@]1(C)CC[C@@]3(C=CC(=O)OC3(C)C)C(C)=C1[C@@H]2OC(C)=O [Compound 2, 11-acetoxyisoaustinone]
> 50 µM: [1]; [5] | [2]; [6] | [3]; [7] | [4]; [8]

C=C1[C@@]2(C)CC3=C(C)[C@]4(C=CC(=O)OC4(C)C)CC[C@]3(C)[C@@]13C(=O)O[C@H](C)[C@@]3(O)C2=O [Compound 3, isoaustinol]
> 50 µM: [1]; PC-3 | [2]; MCF-7 | [3]; HepG2 | [4]; MDA-MB-435

C=C1[C@@]23C(=O)O[C@H](C)[C@@]2(O)C(=O)O[C@]1(C)[C@@H](OC(C)=O)C1=C(C)[C@]2(C=CC(=O)OC2(C)C)CC[C@@]13C [Compound 4, austin]
> 50 µM: [1]; PC-3 | [2]; MCF-7 | [3]; HepG2 | [4]; MDA-MB-435

C=C1[C@@]23C(=O)O[C@H](C)[C@@]2(O)C(=O)O[C@]1(C)[C@@H](O)C1=C(C)[C@]2(C=CC(=O)OC2(C)C)CC[C@@]13C [Compound 5, austinol]
> 50 µM: [1]; [5] | [2]; [6] | [3]; [7] | [4]; [8]

C=C1[C@@]23C(=O)O[C@H](C)[C@]24O[C@@]2(C(=C)[C@]5(C=CC(=O)OC5(C)C)C[C@@H](OC(C)=O)[C@]32C)[C@H](OC(C)=O)[C@@]1(C)OC4=O [Compound 6, acetoxydehydroaustin]
> 50 µM: [1]; PC-3 | [2]; MCF-7 | [3]; HepG2 | [4]; MDA-MB-435

C=C1[C@@]23C(=O)O[C@H](C)[C@]24O[C@@]2(C(=C)[C@]5(C=CC(=O)OC5(C)C)CC[C@]32C)[C@H](OC(C)=O)[C@@]1(C)OC4=O [Compound 7, dehydroaustin]
> 50 µM: [1]; PC-3 | [2]; MCF-7 | [3]; HepG2 | [4]; MDA-MB-435

C=C1[C@@]23C(=O)O[C@H](C)[C@]24O[C@@]2(C(=C)[C@]5(C=CC(=O)OC5(C)C)CC[C@]32C)[C@H](O)[C@@]1(C)OC4=O [Compound 8, dehydroaustinol]
> 50 µM: [1]; PC-3 | [2]; MCF-7 | [3]; HepG2 | [4]; MDA-MB-435

C=C1[C@@]2(C)C[C@H]3[C@]4(C)C=CC(=O)OC(C)(C)[C@H]4CC[C@]3(C)[C@]1(C(=O)OC)C(=O)[C@@](C)(O)C2=O [Compound 9, preaustinoid A2]
> 50 µM: [1]; [5] | [2]; [6] | [3]; [7] | [4]; [8]

C=C1[C@@]23C(=O)O[C@H](C)[C@]24O[C@@]2(C(=C)[C@]5(CCC(=O)OC5(C)C)C[C@@H](OC(C)=O)[C@]32C)[C@H](OC(C)=O)[C@@]1(C)OC4=O [Compound 10, 1,2-dihydro-acetoxydehydroaustin B]
> 50 µM: [1]; [5] | [2]; [6] | [3]; [7] | [4]; [8]
